Assay results as given in PMC10548452 (Journal of medicinal chemistry, 2021).
Like-named read-outs stand apart in the source and are kept apart here.

Key:
[1] = tested on: HIV-1BaL Env-pseudotyped Luc-expressing virus; assay type: cell-based; conditions: PHA-stimulated PBMCs; opioid 10 nM
HIV = conditions: primary human astrocytes, cited from earlier work
HIV-1BaL [2] = experiment: Anti-HIV-1BaL activity; conditions: GHOST CCR5 cells
GHOST CCR5 cells = experiment: Cytotoxicity; conditions: GHOST CCR5 cells; XTT; triplicate
HIV-1BaL [3] = experiment: HIV-1BaL infection assay in OPRM1- or control plasmid-transfected TZM-bl cells; assay type: cell-based; conditions: Human immunodeficiency virus 1, TZM-bl, read-out: Inhibition of HIV-1BaL infection EC50, TZM-bl cells containing only control plasmid
Cytotoxicity = conditions: human
[4] = target: rhesus macaque CCR5 expressed in Chem-1 cells (Macaca mulatta, UniProt P61813); experiment: CCR5 competitive radioligand binding assay
CCR5 (HOS-CCR5 cells) = CCR5 (HOS-CCR5 cells) (Homo sapiens, UniProt P51681); experiment: Calcium mobilization assay in HOS-CCR5 cells; assay type: cell-based; conditions: for CCR5 activation (agonism) in Ca2+ mobilization assay: within the range of concentrations tested
CCR5 (HOS-CCR5 cells), sequence (P51681 whole entry): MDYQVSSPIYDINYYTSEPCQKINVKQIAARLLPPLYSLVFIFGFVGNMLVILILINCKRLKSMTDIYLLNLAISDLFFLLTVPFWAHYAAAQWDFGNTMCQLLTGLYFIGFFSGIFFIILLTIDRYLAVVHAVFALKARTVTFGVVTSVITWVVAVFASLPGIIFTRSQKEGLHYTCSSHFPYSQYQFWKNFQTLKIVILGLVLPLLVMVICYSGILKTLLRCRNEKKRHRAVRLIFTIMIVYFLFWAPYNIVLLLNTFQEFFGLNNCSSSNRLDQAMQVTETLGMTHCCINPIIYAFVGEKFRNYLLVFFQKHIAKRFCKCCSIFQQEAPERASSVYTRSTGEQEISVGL

[5] = tested on: HIV-1BaL Env-pseudotyped Luc-expressing virus (HIV-1-Luc); experiment: HIV-1-Luc infection assay in nonstimulated PBMCs; assay type: cell-based; conditions: 1000 nM
[6] = target: mouse MOR expressed in CHO cell lines (mMOR-CHO) (Mus musculus, UniProt P42866); experiment: MOR competitive radioligand binding assay; conditions: ratio of Ki values vs VZMC001
mouse MOR expressed in CHO cell lines (mMOR-CHO), sequence (P42866 whole entry): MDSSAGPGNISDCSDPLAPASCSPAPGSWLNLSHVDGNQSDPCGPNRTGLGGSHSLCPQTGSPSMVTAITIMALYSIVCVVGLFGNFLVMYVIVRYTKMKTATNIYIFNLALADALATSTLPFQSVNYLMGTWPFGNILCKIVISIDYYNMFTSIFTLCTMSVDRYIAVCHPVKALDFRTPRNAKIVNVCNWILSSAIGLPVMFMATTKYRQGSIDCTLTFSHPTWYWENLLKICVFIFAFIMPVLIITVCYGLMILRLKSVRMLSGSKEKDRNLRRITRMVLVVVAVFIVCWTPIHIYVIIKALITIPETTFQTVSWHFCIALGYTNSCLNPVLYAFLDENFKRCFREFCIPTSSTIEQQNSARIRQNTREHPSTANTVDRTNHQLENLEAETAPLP

[7] = target: mouse mu opioid receptor (mMOR-CHO) (Mus musculus, UniProt P42866); experiment: Calcium mobilization assay in mMOR-CHO cells; assay type: cell-based; conditions: agonist mode, varying concentrations
mouse mu opioid receptor (mMOR-CHO), sequence (P42866 whole entry): as above

CCR5 (Macaca mulatta) = CCR5 (Macaca mulatta) (UniProt P61813); experiment: radioligand binding; conditions: cited from earlier work

MIP-1α, sequence (P10147 27-92): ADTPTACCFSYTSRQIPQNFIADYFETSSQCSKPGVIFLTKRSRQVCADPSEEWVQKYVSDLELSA

With `C[C@@H](NC(=O)[C@@H](N)Cc1ccc(O)cc1)C(=O)NCC(=O)N(C)[C@@H](Cc1ccccc1)C(=O)NCCO` [DAMGO, [D-Ala^2-MePhe^4-Gly(ol)^5]enkephalin] the “effect on HIV expression” value [1] was “remarkable increases in HIV expression”.

For `Cc1nnc(C(C)C)n1C1C[C@H]2CC[C@@H](C1)N2CC[C@H](NC(=O)C1CCC(F)(F)CC1)c1ccc(NC(=O)COCC(=O)NCCCCCCCNC(=O)COCC(=O)N[C@@H]2CC[C@@]3(O)[C@H]4Cc5ccc(O)c6c5[C@@]3(CCN4CC3CC3)[C@H]2O6)cc1` (some centres unmarked) [VZMC001, reference compound], the “fold higher inhibition of HIV entry than maraviroc” value (HIV; with morphine) is listed as 7 fold, the “fold higher inhibition of HIV entry than maraviroc” value (HIV; without morphine) is listed as 3.3 fold and the RT activity (HIV-1BaL [2]; concentrations up to 100 μM, 0 μM defined as 100%) is listed as 107.6–226.1%. The “Cytotoxicity TC50” value (GHOST CCR5 cells) was over 100000 nM.

For `CC(C)c1nnc(CCNC(=O)COCC(=O)NCCCCCCCNC(=O)COCC(=O)N[C@@H]2CC[C@@]3(O)[C@H]4Cc5ccc(O)c6c5[C@@]3(CCN4CC3CC3)[C@H]2O6)n1C1C[C@H]2CC[C@@H](C1)N2CC[C@H](NC(=O)C1CCC(F)(F)CC1)c1ccccc1` (some centres unmarked) [VZMC013], the EC50 (HIV-1BaL [3]) was 610 nM, the “TI (therapeutic index, TC50/EC50)” value (HIV-1BaL [2]) was over 1075 and the “Cytotoxicity TC50” value (GHOST CCR5 cells) was over 100000 nM. The viability at 6 days, 100 µM (Cytotoxicity) was about 100%, the “fold greater CCR5 binding affinity than monovalent VZMC014” value ([4]; ratio of Ki values vs VZMC014) was 12 fold and the “CCR5 activation (agonism) in Ca2+ mobilization assay” value (CCR5 (HOS-CCR5 cells); agonist mode) was “none of these compounds appeared to activate CCR5”. The “fold more potent than VZMC001 in inhibiting CCL5-stimulated Ca2+ mobilization” value (CCR5 (HOS-CCR5 cells); ratio of IC50 values vs VZMC001) was 2.2 fold, the “Inhibition of HIV-1-Luc infectivity” value [5] was “nearly complete blockade” and the “fold higher MOR binding affinity than VZMC001” value [6] was 8.6 fold. For the same compound, the “agonism in Ca2+ mobilization assay” value [7] was “No agonism was observed”.

For `CNC(=O)COCC(=O)NCCCCCCCNC(=O)COCC(=O)NCCc1nnc(C(C)C)n1[C@@H]1C[C@H]2CC[C@@H](C1)N2CC[C@H](NC(=O)C1CCC(F)(F)CC1)c1ccccc1` [VZMC014], the IC50 (CCR5 (HOS-CCR5 cells)) was 116 nM and the “CCR5 activation (agonism) in Ca2+ mobilization assay” value (CCR5 (HOS-CCR5 cells); agonist mode) was “none of these compounds appeared to activate CCR5”.

With `CC(C)c1nnc(CCNC(=O)COCC(=O)NCCCCCNC(=O)COCC(=O)N[C@@H]2CC[C@@]3(O)[C@H]4Cc5ccc(O)c6c5[C@@]3(CCN4CC3CC3)[C@H]2O6)n1C1C[C@H]2CC[C@@H](C1)N2CC[C@H](NC(=O)C1CCC(F)(F)CC1)c1ccccc1` (some centres unmarked) [VZMC019] the IC50 [4] was over 10000 nM.

In the case of “CCL5: C─C motif chemokine ligand 5, CCR5 agonist control [reference compound]”, the EC50 (CCR5 (HOS-CCR5 cells); read-out: Ca2+ mobilization agonism EC50, agonist mode, HOS-CCR5 cells with Gqi5) is reported as 155 ± 6.58 nM.

For MIP-1α (from UniProt P10147), the Kd (CCR5 (Macaca mulatta)) is given as 0.31 nM.
